This is an account of results in patent publication US12630594B2, “Allergy antigen and epitope for same” (HOYU CO., LTD., priority 2017, dated 2026).

The test system of the first assay is IgE antibody present in the serum of a fish-allergic patient. In words: Epitope mapping (1): peptide array of overlapping 15-amino-acid peptides. In kind it is binding, human. Particulars: average of 5 patients / average of 4 non-fish-allergic subjects at least 1.5, Mann-Whitney U test. On the procedure:
Epitope mapping was carried out using a library of overlapping peptides (length: 15 amino acids) corresponding to the amino acid sequences identified as allergy components of fish and the amino acid sequences of known fish allergy antigens aldolase, β-enolase, and glyceraldehyde-3-phosphate dehydrogenase (Non Patent Literature 2-4). Specifically, the library of overlapping peptides was prepared on the basis of the amino acid sequences of SEQ ID NO: 2 for alpha-actinin-3, SEQ ID NO: 5 for EEF1A2 binding protein-like, SEQ ID NO: 10 for alpha-1,4-glucan phosphorylase, SEQ ID NO: 19 for elongation factor 2, SEQ ID NO: 26 for heat shock cognate 70 kDa protein, SEQ ID NO: 33 for serotransferrin, SEQ ID NO: 43 for myosin binding protein H-like, SEQ ID NO: 56 for desmin (fragment), SEQ ID NO: 61 for capping protein (actin filament) muscle Z-line beta, SEQ ID NO: 70 for myosin heavy chain, fast skeletal muscle-like, SEQ ID NO: 110 for glycogen phosphorylase, muscle form-like, SEQ ID NO: 121 for myosin-binding protein C, fast-type-like, SEQ ID NO: 138 for ATP synthase subunit beta, mitochondrial, SEQ ID NO: 144 for L-lactate dehydrogenase A chain-like, SEQ ID NO: 445 for aldolase, SEQ ID NO: 446 for β-enolase, and SEQ ID NO: 447 for glyceraldehyde-3-phosphate dehydrogenase.
The peptides to be synthesized were shifted by 10 amino acids.
For preparation of peptide arrays, the Intavis CelluSpots™ technique was used. Specifically, the peptide arrays were prepared by the following procedure: (1) synthesizing peptides of interest on amino-modified cellulose disks using an automated chemical synthesis apparatus (Intavis MultiPep RS), (2) dissolving the amino-modified cellulose disks to obtain a cellulose-bound peptide solution, and (3) spotting the cellulose-bound peptides onto coated glass slides. The details of each procedure are as described below.
The presence or absence of binding, to each peptide fragment, of an IgE antibody present in the serum of a fish-allergic patient was measured through antigen-antibody reaction using the peptide arrays. The measurement was carried out according to the following procedure. • (1) The peptides were shaken at room temperature for 1 hour in PBST. • (2) The peptide arrays were shaken at overnight at room temperature in 5% serum/PBST. • (3) The peptide arrays were washed with a PBST solution (a PBS buffer containing 0.1% Tween 20 nonionic surfactant) for 5 minutes (×3). • (4) Anti-human IgE antibody-HRP(1:5,000, PBST) was added thereto, and the peptide arrays were shaken at room temperature for 1 hour. • (5) The peptide arrays were washed with a PBST solution for 5 minutes (×3). • (6) Pierce ECL Plus Western Blotting Substrate (produced by Thermo Fisher Scientific) was added thereto, and the peptide arrays were shaken at room temperature for 5 minutes. • (7) The chemiluminescence of the peptides treated as described above in (1) to • (6) was measured using Amersham Imager 600.
Chemiluminescence intensity in images obtained by the measurement described above in (7) was converted into a numeric value using ImageQuant TL (GE Healthcare). The average value of numeric values determined from images obtained from results about the serum of 5 patients was divided by the average value of numeric values determined from images obtained from results about the serum of 4 non-fish-allergic subjects. It was determined that a peptide having a calculated value (average value of the patient group/average value of the non-fish-allergic subject group) of at least 1.5 and a significant difference of […] in the Mann-Whitney U test was a peptide bound to an IgE antibody in a patient-specific manner.
With “7 (GGYIQAVLDRNLCEN; epitope) [compound 7]”, the “IgE antibody binding in a patient-specific manner” value is “bind in a patient-specific manner”.

Another assay concerns IgE antibodies from patients. In words: Epitope mapping (2): overlapping 10-amino-acid peptide fragments shifted by one amino acid. The assay is classed as binding, human. Particulars: positions numbered within the 15-amino-acid epitope; serum of 5 patients. The source says:
On the basis of the sequences (SEQ ID NOs: 150-154 for alpha-actinin-3, SEQ ID NO: 155 for EEF1A2 binding protein-like, SEQ ID NOs: 156 and 157 for alpha-1,4-glucan phosphorylase, SEQ ID NOs: 158 and 159 for elongation factor 2, SEQ ID NOs: 160-162 for heat shock cognate 70 kDa protein, SEQ ID NOs: 163-167 for serotransferrin, SEQ ID NOs: 168-171 for myosin binding protein H-like, SEQ ID NOs: 172-174 for desmin (fragment), SEQ ID NOs: 175-178 for capping protein (actin filament) muscle Z-line beta, SEQ ID NOs: 179-185 for myosin heavy chain, fast skeletal muscle-like, SEQ ID NO: 186 for glycogen phosphorylase, muscle form-like, SEQ ID NOs: 187-196 for myosin-binding protein C, fast-type-like, SEQ ID NO: 197 for ATP synthase subunit beta, mitochondrial, SEQ ID NO: 198 for L-lactate dehydrogenase A chain-like, SEQ ID NO: 199 for aldolase, SEQ ID NOs: 200-202 for β-enolase, and SEQ ID NOs: 203 and 204 for glyceraldehyde-3-phosphate dehydrogenase) of the peptides bound to an IgE antibody in serum in a patient-specific manner as described above in (A), a library of overlapping peptide fragments (length: 10 amino acids) was prepared using the sequences of the peptides and sequences in which sequences were added so as to flank each peptide in the amino acid sequences of allergen components (SEQ ID NO: 2 for alpha-actinin-3, SEQ ID NO: 5 for EEF1A2 binding protein-like, SEQ ID NO: 10 for alpha-1,4-glucan phosphorylase, SEQ ID NO: 19 for elongation factor 2, SEQ ID NO: 26 for heat shock cognate 70 kDa protein, SEQ ID NO: 33 for serotransferrin, SEQ ID NO: 43 for myosin binding protein H-like, SEQ ID NO: 56 for desmin (fragment), SEQ ID NO: 61 for capping protein (actin filament) muscle Z-line beta, SEQ ID NO: 70 for myosin heavy chain, fast skeletal muscle-like, SEQ ID NO: 110 for glycogen phosphorylase, muscle form-like, SEQ ID NO: 121 for myosin-binding protein C, fast-type-like, SEQ ID NO: 138 for ATP synthase subunit beta, mitochondrial, SEQ ID NO: 144 for L-lactate dehydrogenase A chain-like, SEQ ID NO: 445 for aldolase, SEQ ID NO: 446 for β-enolase, and SEQ ID NO: 447 for glyceraldehyde-3-phosphate dehydrogenase) comprising the sequences of the peptide. Epitope mapping was carried out using the library.
The peptides to be synthesized were shifted by one amino acid.
The library was prepared by the same procedure as described above in (A), and the presence or absence of binding of an IgE antibody present in the serum of a patient and a non-fish-allergic subject to each peptide fragment was measured by the same technique as described above. Amino acids at positions where the binding activity against IgE antibodies from patients were lost or decreased in the peptides shifted by one amino acid while binding activity against IgE antibodies from non-fish-allergic subjects arose were confirmed as amino acids adversely affecting the specificity of binding to IgE antibodies.
Chemiluminescence intensity in images obtained by measurement was converted into a numeric value in the same manner as in (A) using ImageQuant TL (GE Healthcare). […]
For “3 (SCFYHAFAGAEQAET; epitope) [compound 3]”, the “Positions of amino acids of region important for binding in epitope” value (shortened to “Positions”) is listed as 1-15. For the substance “4 (TKLRLSNRPAFMPSE; epitope) [compound 4]”, the “Positions” value was 1-15. Still for that read-out and setting: with “15 (YSGAFQCLKDGAGEV; epitope) [compound 15]” the figure was 8-15; with “21 (KEVIDYKPTPFVEHD; epitope) [compound 21]”, 2-15. In the case of “25 (DVGRSAEVHSKKTVL; epitope) [compound 25]”, the “Positions” value is on record as 1-7. Still for that read-out and setting: for “27 (IHVVEVQEKSSGRTA; epitope) [compound 27]” the value was 2-12; for “29 (DNQKYRQLQKELSQV; epitope) [compound 29]”, 3-14.

Consider “31 (YNSMEQLCINFTNEK; epitope) [compound 31]”, for which the “Positions” value is on record as 7-15.

For the substance “32 (LYPPPPPEDKAKKGG; epitope) [compound 32]”, the “Positions” value is 1-10. As for “34 (EEDKVNTLTKAKTKL; epitope) [compound 34]”, the “Positions” value was 5-14. For “40 (TDLRGLLKRLKKMKT; epitope) [compound 40]”, the “Positions” value is on record as 2-8. Same read-out and setting: with “45 (GAPVTGYLMERKKKG; epitope) [compound 45]” the figure was 3-7; with “46 (RQKYIRRVGDKINLT; epitope) [compound 46]”, 2-13. “51 (DGDKSRYLGKGTVKA; epitope) [compound 51]”: the “Positions” value is listed as 6-13.

As to “53 (NLKNVIKAKYGKDAT; epitope) [compound 53]”, the “Positions” value was 6-15.

A further assay deals with IgE antibodies from patients. In words: Epitope mapping (3): alanine scanning. Also on record: species or system human. Particulars: positions numbered within the region important for binding; no influence on IgE binding when substituted by alanine. On the procedure:
From the amino acid sequences identified above in (A), a library of peptide fragments in which N-terminal amino acids were substituted one by one by alanine according to a technique called alanine scanning (Non Patent Literature 5) was prepared by the same technique as described above. The presence or absence of binding of an IgE antibody present in the serum of a patient and a non-fish-allergic subject to each peptide fragment was measured by the same technique as described above. Amino acids at positions where the binding activity against IgE antibodies from patients were lost or decreased by the substitution by alanine while binding activity against IgE antibodies from non-fish-allergic subjects arose were confirmed as amino acids important for exertion of original antigenicity, or amino acids influencing exertion of original antigenicity.
Chemiluminescence intensity in images obtained by measurement was converted into a numeric value in the same manner as in (A) using ImageQuant TL (GE Healthcare). When values obtained using the sequences (SEQ ID NOs: 150-204) that were of the peptides confirmed to bind to an IgE antibody in a patient specific manner from the images obtained from results about the serum of 5 patients and served as the basis of overlapping were defined as 100%, it was determined that: a peptide having a value of less than 20% had no binding activity against IgE antibodies; a peptide having a value of 20% or more and less than 50% had binding activity, albeit poor, against IgE antibodies; a peptide having a value of 50% or more and less than 70% had binding activity, albeit somewhat poor, against IgE antibodies; a peptide having a value of 70% or more and less than 90% had equivalent binding activity against IgE antibodies; and a peptide having a value of 90% or more had almost equivalent or good binding activity against IgE antibodies and was thus a peptide had remaining binding activity against IgE antibodies.
By this analysis, common sequences important for exertion of original antigenicity were found in regions important for binding to IgE antibodies from patients, in the sequences serving as the basis of overlapping.
As to “3 (SCFYHAFAGAEQAET; epitope) [compound 3]”, the “Non-binding-influencing amino acid in region important for binding” value (“Non-binding-influencing amino acid” for short) is reported as 2. Consider “12 (EAEQYKAADDVQRDK; heat shock cognate 70 kDa protein epitope) [compound 12]”, for which the “Non-binding-influencing amino acid” value came to 2.

Turning to “13 (KLSDEDKQKILDKCN; epitope) [compound 13]”, the “Non-binding-influencing amino acid” value was found to be 4. With “18 (YYGYNGAFRCLVEDA; epitope) [compound 18]”, the “Non-binding-influencing amino acid” value was determined as 2. “19 (RYVKKVGEKINIVIP; epitope) [compound 19]”: the “Non-binding-influencing amino acid” value is 3.

In the case of “26 (VILIKKAGDGSKKIK; epitope) [compound 26]”, the “Non-binding-influencing amino acid” value was 3-5. Consider “30 (TVTALDFREGKEFKD; epitope) [compound 30]”, for which the “Non-binding-influencing amino acid” value is listed as 2-4.

As to “31 (YNSMEQLCINFTNEK; epitope) [compound 31]”, the “Non-binding-influencing amino acid” value was 2. Regarding “38 (LKATKKKKKPVVDEE; epitope) [compound 38]”, the “Non-binding-influencing amino acid” value was found to be 2. Consider “44 (YTFIPDGYALSLSAK; epitope) [compound 44]”, for which the “Non-binding-influencing amino acid” value is 2-4.

Take “51 (DGDKSRYLGKGTVKA; epitope) [compound 51]”: the “Non-binding-influencing amino acid” value stood at 7. Take “52 (YRHIADLAGHKDVIL; epitope) [compound 52]”: the “Non-binding-influencing amino acid” value was 2-4.

As for “53 (NLKNVIKAKYGKDAT; epitope) [compound 53]”, the “Non-binding-influencing amino acid” value is on record as 3-6. On the same count and under the same terms, with “SEQ ID NO: 207: region important for binding, amino acids at positions 1-10 of epitope 1 (SEQ ID NO: 150) (SGERLPKPDK; epitope)” the figure was 2-6. “SEQ ID NO: 210: region important for binding, amino acids at positions 9-14 of epitope 1 (SEQ ID NO: 150) (DKGKMR; epitope)”: the “Non-binding-influencing amino acid” value is 3-5.
